Laboratory results published in patent publication US11414379B2, “SPAK kinase inhibitors as neuroprotective agents” (United States Government as represented by the Department …, priority 2018, dated 2022).

How the values were obtained:
GST-[T233E]SPAK kinase = target: T1, GST-[T233E]SPAK kinase (Homo sapiens, UniProt Q9UEW8, T231E); assay: SPAK kinase assay employing CATCHtide; type: biochemical
T1 construct: made in house; host or cells: E. coli
Procedure: SPAK kinase assays employing CATCHtide (cation chloride co-transporter peptide substrate). Peptide kinase assays, performed in triplicate, were set up in a total volume of 50 μl containing 0.5 μg GST-[T233E]SPAK kinase (˜5 nM at ˜10% purity) in 50 mM Tris/HCl, pH 7.5, 0.1 mM EGTA, 10 mM MgCl2, 300 μM CATCHtide ([…]; SEQ ID NO:1), […] [γ-32P]ATP (˜500 cpm/pmol) and the indicated concentrations of inhibitor dissolved in DMSO. After incubation for 30 min at 30° C., reactions were terminated by spotting 40 μl of the reaction mix onto P81 phosphocellulose paper and immersion in 50 mM phosphoric acid. The papers were washed extensively and the incorporation of [γ-^32P]ATP into CATCHtide was quantified by Cerenkov counting. IC^50 values were calculated with GraphPad Prism using non-linear regression analysis.
Referring to FIG. 7A, the activation of SPAK kinase by MO25α is shown. SPAK was assayed in the absence or presence of five-fold molar excess of wild-type MO25α.
Referring to FIG. 7B, kinetic data was determined for ZT-1a in the absence or presence of five-fold molar excess of wild-type MO25α. Data points are the average of three determinations, and the error bars are +/−SEM.

[1] = system: mouse model of ischemic stroke; assay: Neurological function tests after tMCAO; type: in vivo; conditions: 5.0 mg/kg
Procedure: The scores were: 0, no observable deficit; 1, forelimb flexion; 2, forelimb flexion and decreased resistance to lateral push; 3, forelimb flexion, decreased resistance to lateral push, and unilateral circling; 4, forelimb flexion and partial or complete lack of ambulation.
In brief, the corner test apparatus consists of two cardboards (30×20×1 cm each) placed together at a 30° angle to form a narrow alley. The mouse was placed between the two angled boards facing the corner. When exiting the corner, uninjured mice turned left or right randomly. […] The numbers of left and right turns of each mouse during 10 trials were recorded, and turning movements that were not part of a rearing movement were not scored. Preoperative training was carried twice per day for three days prior to operation. Postoperatively, animals were tested on day 1, 3, 5, and 7.
In brief, two small pieces of adhesive tape (4 mm×3 mm) were attached to the forepaws in an alternating sequence and with equal pressure by the experimenter before each trial. Animals were released into a testing cage, and the time of contact and removal of the adhesive patch were recorded. Contact was recorded when either shaking of the paw or mouth contact occurred. The trial ended after the adhesive patch was removed or after 2 min had elapsed. Preoperative training was carried twice per day for three days prior to operation. Postoperatively, animals were tested on day 1, 3, 5, and 7.
Referring to FIG. 13, neurological deficit scores, corner tests, and adhesive tape contact and adhesive tape removal tests of mice treated with vehicle or ZT-1a 1 day before tMCAO (˜1) and at days 0, 1, 3, 5, and 7 post-tMCAO are shown. Vehicle (DMSO, 2 ml/kg) or ZT-1a (5.0 mg/kg) were administered as described in B. Data are means±SEM, n=6 for each group (male 3, female 3). * p<0.05 vs. vehicle.

wild type KCC2 = assay: 86Rb+ uptake assay in HEK293 cells; type: cell-based, human; conditions: n=3
Procedure: (§1) HEK293 cells were plated at 50-60% confluence of in 12-well plates (2.4-cm-diameter per/well) and transfected with wild-type or various mutant forms of full-length flag-tagged human KCCs. Each well of HEK293 cells was transfected with 2.5 μL of 1 mg/mL polyethylenimine and 1 μg of plasmid DNA. The ^86Rb^+-uptake assay was performed on cells at 36 hours post-transfection. Culture medium was aspirated from the wells and replaced with either isotonic or hypotonic medium for 15 min at 37° C., then for a further 15 min with stimulating medium containing additional 1 mM ouabain and 0.1 mM bumetanide, to prevent ^86Rb^+ uptake via the NKCC1 cotransporter. This stimulating medium was then removed and replaced with isotonic medium plus inhibitors containing 2 μCi/mL ^86Rb^+ for 10 min at 37° C., following which cells were rapidly washed three times with the respective ice-cold non-radioactive medium. The cells were lysed in 300 μL of ice-cold lysis buffer and ^86Rb^+ uptake was quantitated by liquid scintillation counting (PerkinElmer).
(§2) Referring to FIG. 8, ^86Rb^+ uptake assays in the presence of ZT-1a is shown. […] 10 min ^86Rb^+ uptake values were quantified by scintillation counting, normalized per mg protein for each condition and plotted for both isotonic and hypotonic conditions. Statistical significance was determined at p<0.05 (both panels).

[2] = system: KCC2 double mutant Thr906A1a/Thr1007Ala; assay: 86Rb+ uptake assay in HEK293 cells; type: cell-based, human; conditions: n=3, p>0.05
Procedure: as §1, §2

pSPAK = assay: IVH-induced phosphorylation in rat choroid plexus, ICV delivery; type: in vivo; conditions: 48 hrs post-IVH, n=3

Cc1cc(C(C#N)c2ccc(Cl)cc2)c(Cl)cc1NC(=O)c1cc(Cl)ccc1O (stereo not shown) [ZT-1a, 5-chloro-N-(5-chloro-4-((4-chlorophenyl)(cyano)methyl)-2-methylphenyl)-2-hydroxy-benzamide]
change of IC50 values by addition of MO25α (GST-[T233E]SPAK kinase): not significantly altered | change of IC50 values with increasing ATP concentrations (GST-[T233E]SPAK kinase; SPAK activity at different ATP concentrations): unchanged | IC50 (GST-[T233E]SPAK kinase; absence of wild-type MO25α): 40.5 µM | IC50 (GST-[T233E]SPAK kinase; presence of five-fold molar excess of wild-type MO25α): 41.3 µM | corner test ([1]; days 1-7 post-stroke): reduced unidirectional turn preference and absence of asymmetries by day 7 post-stroke | adhesive removal test ([1]; vs vehicle, p<0.05): significantly improved motor function | adhesive contact test ([1]; vs vehicle, p=0.10): trend to faster contact response | activation of WT KCC2 (86Rb+ uptake) (wild type KCC2): > 2.6 fold | increase of activity of KCC2 double mutant (86Rb+ uptake) [2]: 7±2% | reduction of IVH-induced expression of pSPAK (pSPAK): 55±3.6%
